In patent EP4778922A1, “BICYCLIC COMPOUND, AND PREPARATION METHOD THEREFOR AND PHARMACEUTICAL USE THEREOF” (Shanghai Jeyou Pharmaceutical Co., Ltd., priority 2023, dated 2025):
Like-named read-outs stand apart in the source and are kept apart here.

How the values were obtained:
[1] = test system: LNCaP cells; test: Cell proliferation inhibition assay in LNCaP cells (0.2 nM DHT, CellTiter-Glo, 7 days); format: cell-based, human; conditions: Homo sapiens, LNCaP, 168 h
Procedure, shortened: (§1)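 22RV1 cells received compound alone; LNCaP cells were stimulated with 0.2 nM DHT added 1 h after compound. Seeding was 3000 cells/well.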

[2] = Mouse pharmacokinetic test; format: in vivo, ICR mice; conditions: plasma; for Tmax: read-out: Tmax; for bioavailability: PO-30mpk vs IV-0.5mpk
Procedure, shortened: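 Male naive ICR mice (25–30 g, n=3 per route) received a single intravenous or oral dose, with feeding resumed 4 h post-dose. Blood was centrifuged at 4°C, and plasma was stored at -80°C until analysis.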

[3] = molecular target: T1, CYP1A2 (Homo sapiens, UniProt P05177); test: CYP inhibition assay in human liver microsomes; format: in vitro ADME
T1 construct: co-incubated with human liver microsomes; from tissue; host or cells: human liver microsomes
T1 sequence (P05177 1-516): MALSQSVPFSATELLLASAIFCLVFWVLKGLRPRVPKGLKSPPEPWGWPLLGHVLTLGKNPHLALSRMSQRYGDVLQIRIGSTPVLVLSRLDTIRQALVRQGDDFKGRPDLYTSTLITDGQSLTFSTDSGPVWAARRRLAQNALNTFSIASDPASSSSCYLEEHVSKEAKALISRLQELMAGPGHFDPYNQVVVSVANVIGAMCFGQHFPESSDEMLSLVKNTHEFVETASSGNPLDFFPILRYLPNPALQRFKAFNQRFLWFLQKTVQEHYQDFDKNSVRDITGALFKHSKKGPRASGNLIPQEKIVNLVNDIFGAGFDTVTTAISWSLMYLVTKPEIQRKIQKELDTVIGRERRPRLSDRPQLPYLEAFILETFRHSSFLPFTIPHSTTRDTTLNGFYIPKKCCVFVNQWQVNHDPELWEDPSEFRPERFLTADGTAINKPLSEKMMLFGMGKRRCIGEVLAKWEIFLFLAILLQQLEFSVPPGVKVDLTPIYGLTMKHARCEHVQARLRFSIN
Description: (§2) Test Example 3: CYP Inhibition Assay
(§3) An in vitro assay system was used to evaluate the effects of the compounds on the activities of several human liver microsomal cytochrome P450 (CYP) isozymes (CYP1A2, CYP2C9, CYP2D6, CYP3A4 (testosterone/midazolam), CYP2C19, and CYP2C8). Specific probe substrates for CYP450 isozymes were co-incubated with human liver microsomes and the compound at various concentrations (0, 0.0300, 0.100, 0.300, 1.00, 3.00, 10.0 µM). The reaction was initiated by adding the coenzyme NADPH. After the reaction was completed, the samples were processed, and the metabolites generated from the probe substrates were detected by liquid chromatography-tandem mass spectrometry (LC-MS/MS). Based on the resulting dose-response curves, the IC50 values of the test compounds for the probe substrate reactions catalyzed by each CYP isozyme were calculated.

[4] = molecular target: T2, CYP2C19 (Homo sapiens, UniProt P33261); test: CYP inhibition assay in human liver microsomes; format: in vitro ADME
T2 construct: co-incubated with human liver microsomes; from tissue; host or cells: human liver microsomes
T2 sequence (P33261 whole entry): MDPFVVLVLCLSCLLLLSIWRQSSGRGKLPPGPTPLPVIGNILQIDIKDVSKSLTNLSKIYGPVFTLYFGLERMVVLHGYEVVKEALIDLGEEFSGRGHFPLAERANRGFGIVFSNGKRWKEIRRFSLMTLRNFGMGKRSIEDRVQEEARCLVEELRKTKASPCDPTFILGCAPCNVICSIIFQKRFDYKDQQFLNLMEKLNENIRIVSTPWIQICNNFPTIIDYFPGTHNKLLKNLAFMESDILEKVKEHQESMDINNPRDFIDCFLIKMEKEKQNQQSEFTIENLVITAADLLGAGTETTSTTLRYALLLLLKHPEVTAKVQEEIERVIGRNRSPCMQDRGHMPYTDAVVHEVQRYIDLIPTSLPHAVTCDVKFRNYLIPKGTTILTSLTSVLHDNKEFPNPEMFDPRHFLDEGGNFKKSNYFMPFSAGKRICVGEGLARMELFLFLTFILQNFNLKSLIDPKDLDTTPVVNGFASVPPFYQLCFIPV
Description: as §2, §3

[5] = molecular target: T3, CYP2C8 (Homo sapiens, UniProt P10632); test: CYP inhibition assay in human liver microsomes; format: in vitro ADME
T3 construct: co-incubated with human liver microsomes; from tissue; host or cells: human liver microsomes
T3 sequence (P10632 1-490): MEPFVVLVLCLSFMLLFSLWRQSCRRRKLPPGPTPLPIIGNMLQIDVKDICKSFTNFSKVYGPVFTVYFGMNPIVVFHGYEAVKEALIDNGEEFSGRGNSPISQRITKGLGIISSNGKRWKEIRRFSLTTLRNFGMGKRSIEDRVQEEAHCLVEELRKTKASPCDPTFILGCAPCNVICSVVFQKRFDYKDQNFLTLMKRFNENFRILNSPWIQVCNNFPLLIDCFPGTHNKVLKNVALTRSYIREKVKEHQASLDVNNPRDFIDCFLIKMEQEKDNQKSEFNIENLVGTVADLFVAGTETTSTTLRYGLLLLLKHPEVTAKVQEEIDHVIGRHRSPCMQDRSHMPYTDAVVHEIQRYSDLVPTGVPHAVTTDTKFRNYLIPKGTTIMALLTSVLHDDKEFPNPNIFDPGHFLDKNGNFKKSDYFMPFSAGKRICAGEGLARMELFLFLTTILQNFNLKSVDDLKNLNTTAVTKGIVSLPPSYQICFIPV
Description: as §2, §3

[6] = molecular target: T4, CYP2C9 (Homo sapiens, UniProt P11712); test: CYP inhibition assay in human liver microsomes; format: in vitro ADME
T4 construct: co-incubated with human liver microsomes; from tissue; host or cells: human liver microsomes
T4 sequence (P11712 whole entry): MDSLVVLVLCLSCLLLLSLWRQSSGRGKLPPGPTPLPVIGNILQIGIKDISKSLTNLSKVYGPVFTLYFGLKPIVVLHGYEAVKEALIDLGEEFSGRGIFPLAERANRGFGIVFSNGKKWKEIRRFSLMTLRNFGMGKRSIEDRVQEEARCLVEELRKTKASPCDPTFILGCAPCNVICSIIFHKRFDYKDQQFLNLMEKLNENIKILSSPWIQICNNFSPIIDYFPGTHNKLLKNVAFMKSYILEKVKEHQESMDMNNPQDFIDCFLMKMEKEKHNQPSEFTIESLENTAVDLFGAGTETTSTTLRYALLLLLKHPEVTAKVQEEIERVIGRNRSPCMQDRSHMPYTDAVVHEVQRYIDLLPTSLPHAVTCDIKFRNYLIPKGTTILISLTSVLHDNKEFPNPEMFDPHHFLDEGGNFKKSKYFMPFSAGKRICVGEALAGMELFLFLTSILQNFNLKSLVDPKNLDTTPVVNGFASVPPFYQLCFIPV
Description: as §2, §3

[7] = molecular target: T5, CYP2D6 (Homo sapiens, UniProt P10635); test: CYP inhibition assay in human liver microsomes; format: in vitro ADME
T5 construct: co-incubated with human liver microsomes; from tissue; host or cells: human liver microsomes
T5 sequence (P10635 whole entry): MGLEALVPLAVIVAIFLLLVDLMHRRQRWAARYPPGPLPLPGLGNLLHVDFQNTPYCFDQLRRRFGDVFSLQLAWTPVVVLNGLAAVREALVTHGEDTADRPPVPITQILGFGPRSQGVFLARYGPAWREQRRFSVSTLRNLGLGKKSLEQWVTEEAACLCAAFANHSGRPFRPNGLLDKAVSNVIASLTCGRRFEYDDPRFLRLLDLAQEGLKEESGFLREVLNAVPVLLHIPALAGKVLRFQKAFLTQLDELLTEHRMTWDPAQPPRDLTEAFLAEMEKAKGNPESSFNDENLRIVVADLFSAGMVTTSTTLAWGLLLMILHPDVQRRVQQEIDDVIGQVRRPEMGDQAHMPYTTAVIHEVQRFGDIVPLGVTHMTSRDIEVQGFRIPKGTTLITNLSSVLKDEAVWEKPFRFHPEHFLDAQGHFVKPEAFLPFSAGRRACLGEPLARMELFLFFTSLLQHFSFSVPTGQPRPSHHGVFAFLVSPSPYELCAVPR
Description: as §2, §3

[8] = molecular target: T6, CYP3A4 (testosterone/midazolam) (Homo sapiens, UniProt P08684); test: CYP inhibition assay in human liver microsomes; format: in vitro ADME
T6 construct: co-incubated with human liver microsomes; from tissue; host or cells: human liver microsomes
T6 sequence (P08684 whole entry): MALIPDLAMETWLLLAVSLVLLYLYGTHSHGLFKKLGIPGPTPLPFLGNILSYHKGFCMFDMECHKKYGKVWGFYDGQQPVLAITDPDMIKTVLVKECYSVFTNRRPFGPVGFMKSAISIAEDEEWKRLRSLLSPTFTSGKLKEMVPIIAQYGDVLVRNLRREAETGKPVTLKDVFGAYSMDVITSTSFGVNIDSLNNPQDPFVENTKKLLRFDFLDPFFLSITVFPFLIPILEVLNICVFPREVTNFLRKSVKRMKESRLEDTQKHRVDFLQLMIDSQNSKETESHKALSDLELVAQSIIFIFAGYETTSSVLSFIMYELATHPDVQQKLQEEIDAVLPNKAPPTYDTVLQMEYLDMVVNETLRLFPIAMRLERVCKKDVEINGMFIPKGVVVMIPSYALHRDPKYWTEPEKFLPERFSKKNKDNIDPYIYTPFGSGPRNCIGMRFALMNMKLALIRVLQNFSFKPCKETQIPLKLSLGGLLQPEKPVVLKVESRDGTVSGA
Description: as §2, §3

[9] = test system: 22RV1 cells; test: Cell proliferation inhibition assay in 22RV1 cells (CellTiter-Glo, 7 days); format: cell-based, human; conditions: Homo sapiens, 22Rv1, 168 h
Procedure, shortened: as §1

[10] = human liver microsomes, NADPH, read-out: CYPs 1A2 (IC50)
[11] = human liver microsomes, NADPH, read-out: CYPs 2C19 (IC50)
[12] = human liver microsomes, NADPH, read-out: CYPs 2C8 (IC50)
[13] = human liver microsomes, NADPH, read-out: CYPs 2C9 (IC50)
[14] = human liver microsomes, NADPH, read-out: CYPs 2D6 (IC50)
[15] = probe substrate midazolam, read-out: CYPs 3A4 (Midazolam) (IC50)
[16] = probe substrate testosterone, read-out: CYPs 3A4 (Testosterone) (IC50)

SMILES	IC50 [1] [µM]	AUC(0-inf) ([2]; po, 30 mg/kg, PO-30mpk) [µg·h/mL]	Cmax ([2]; po, 30 mg/kg, PO-30mpk) [ng/mL]	half-life ([2]; po, 30 mg/kg, PO-30mpk) [h]	Tmax ([2]; po, 30 mg/kg, PO-30mpk) [h]	IC50 [4, 11] [µM]	IC50 [5, 12] [µM]	IC50 [6, 13] [µM]	IC50 [8, 15] [µM]	IC50 [8, 16] [µM]	IC50 [9] [µM]	C0 ([2]; 0.5 mg/kg, IV-0.5mpk) [ng/mL]	clearance ([2]; 0.5 mg/kg, IV-0.5mpk) [mL/min/kg]	bioavailability ([2]; 30 mg/kg) [%]	AUC(0-inf) ([2]; iv, 0.5 mg/kg, IV-0.5mpk) [µg·h/mL]	half-life ([2]; iv, 0.5 mg/kg, IV-0.5mpk) [h]	further results
CC(C)(c1ccc(-c2cnc(OCc3ccnc(N4CC([S@](C)(=N)=O)C4)n3)cn2)cc1)c1cc(Cl)c(OCCCl)c(C#N)c1 (single isomer, unassigned) [Compound 323A]	0.58	1390	131000	5.94	3.3	> 10	> 10	8	> 10	> 10							IC50 [3, 10]: > 10 µM; IC50 [7, 14]: > 10 µM
CC(C)(c1ccc(-c2ccc(OCc3ccnc(P(C)(C)=O)n3)cc2)cc1)c1cc(Cl)c(OCCCl)c(C#N)c1 [Compound 2]		619	31700	12	3.3	> 10		6.9	> 10	> 10	0.77	1200	1.09	135	7.65	8.9	IC50 [3, 10]: > 10 µM; IC50 [7, 14]: > 10 µM
CC(C)(c1ccc(-c2ccc3oc(-c4ccnc(P(C)(C)=O)n4)c(N)c3c2)cc1)c1cc(Cl)c(OCCCl)c(C#N)c1 [Compound 56]		277	29600	8.57	3.33						0.27	6190	1.02	55.6	8.3	6.1	IC50 [3]: > 10 µM; IC50 [4]: > 10 µM; IC50 [5]: > 10 µM; IC50 [6]: > 10 µM; IC50 [7]: > 10 µM; IC50 ([8]; CYPs 3A4 (Midazolam) (IC50), probe substrate midazolam): > 10 µM; IC50 ([8]; CYPs 3A4 (Testosterone) (IC50), probe substrate testosterone): > 10 µM
CC(C)(c1ccc(-c2ccc(OCc3ccnc(N4CC(S(C)(=O)=O)C4)n3)cn2)cc1)c1cc(Cl)c(OCCCl)c(C#N)c1 [Compound 85]	0.33	480	43000	8.9	2	> 10	> 10	6.5	> 10	> 10	0.34	3110	0.63	58.3	13.7	6.12	
CC(C)(c1ccc(-c2ccc(C#Cc3cnc(P(C)(C)=O)nc3)cc2)cc1)c1cc(Cl)c(OCCCl)c(C#N)c1 [Compound 109]	0.57	870	29200	27.1	4	> 10	8.8	> 10	> 10	> 10	0.12	1580	0.56	93.6	15.5	13.8	
CC(C)(c1ccc(-c2ccc(OCc3ccc(-c4cnc(P(C)(C)=O)nc4)cc3)cc2)cc1)c1cc(Cl)c(OCCCl)c(C#N)c1 [Compound 136]	0.52	242	10100	16.6	7	> 10	> 10	> 10	> 10	> 10	0.23	3730	0.49	23.5	17.1	14.6	
CC(C)(c1ccc(-c2ccc(OCc3ccc(-c4cnc(P(C)(C)=O)nc4)nc3)cc2)cc1)c1cc(Cl)c(OCCCl)c(C#N)c1 [Compound 276]	0.51	216	13200	9	4	> 10	> 10	> 10	> 10	> 10	0.11						
CC(C)(c1ccc(-c2ccc(OCC34CC(c5cnc(P(C)(C)=O)nc5)(C3)C4)cc2)cc1)c1cc(Cl)c(OCCCl)c(C#N)c1 [Compound 320]	0.26					> 10	9.1	> 10	> 10	> 10	0.079						
CC(C)(c1ccc(-c2cnc(OCc3ccnc(N4CC5(CCS5(=O)=O)C4)n3)cn2)cc1)c1cc(Cl)c(OCCCl)c(C#N)c1 [Compound 376]	0.1	2300	131000	23	4	> 10	> 10	> 10	> 10	> 10	0.27						
CC(C)(c1ccc(-c2ncc(OCc3ccnc(N4CC(S(C)(=O)=O)C4)n3)cn2)cc1)c1cc(Cl)c(OCCCl)c(C#N)c1 [Compound 379]	0.12					> 10	> 10	> 10	> 10	> 10	0.68						
CC(C)(c1ccc(-c2cnc(OCc3ccc(-c4ccc(P(C)(C)=O)nn4)cc3)cn2)cc1)c1cc(Cl)c(OCCCl)c(C#N)c1 [Compound 380]	0.15					> 10	> 10	> 10	> 10	> 10	0.23						
CC(C)(c1ccc(-c2cnc(OCc3ccc(-c4cnc(P(C)(C)=O)cn4)cc3)cn2)cc1)c1cc(Cl)c(OCCCl)c(C#N)c1 [Compound 381]	0.11					> 10	> 10	5.8	> 10	> 10	0.35						
CC(C)(c1ccc(-c2cnc(OCc3ccnc(N4CC(S(=O)(=O)C5CC5)C4)n3)cn2)cc1)c1cc(Cl)c(OCCCl)c(C#N)c1 [Compound 387]	0.05					> 10	> 10	1.9	> 10	> 10	0.22						
CC(C)(c1ccc(-c2cnc(OCc3ccnc(N4CC5(C4)CS(=N)(=O)C5)n3)cn2)cc1)c1cc(Cl)c(OCCCl)c(C#N)c1 [Compound 391]	0.091					> 10	> 10	10	> 10	> 10	0.46						
